The test has as its system ATF4 luciferase reporter in HEK293T cells. Put plainly: ATF4-Luc assay (in vitro model of VWMD). The class given is cell-based, human. The conditions noted are these: Homo sapiens, HEK-293T, 7 h, HEK293T cells carrying the ATF4 luciferase reporter, 1 μg/mL tunicamycin, One Glo luminescence. In outline:
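Stable HEK293T line expressing firefly luciferase behind the human ATF4 5′-UTR, treated with 1 μg/mL tunicamycin plus compound for 7 hours. Luminescence read with One Glo; EC50 determined.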
As to `O=C(NC12CC(n3cc(-c4ccc(OC(F)(F)F)cn4)cn3)(C1)C2)[C@H]1C[C@@H](O)c2cc(Cl)c(Cl)cc2O1` [Compound 566, (2R,4R)-6,7-dichloro-4-hydroxy-N-(3-{4-[5-(trifluoromethoxy)pyridin-2-yl]-1H-pyrazol-1-yl}bicyclo[1.1.1]pentan-1-yl)-3,4-dihydro-2H-1-benzopyran-2-carboxamide], the EC50 was less than 10 nM.
For the compound `O=C(NC12CC(n3cc(C(=O)N4CC[C@H](F)C4)cn3)(C1)C2)[C@H]1C[C@@H](O)c2cc(Cl)ccc2O1` [Compound 382, (2R,4R)-6-chloro-N-(3-{4-[(3S)-3-fluoropyrrolidine-1-carbonyl]-1H-pyrazol-1-yl}bicyclo[1.1.1]pentan-1-yl)-4-hydroxy-3,4-dihydro-2H-1-benzopyran-2-carboxamide], the EC50 was in the range of 50 to 250 nM.
For `O=C1CC(C(=O)NC23CC(c4nnc([C@H]5C[C@@H](OC(F)(F)F)C5)o4)(C2)C3)Oc2ccc(Cl)cc21` (stereo partly drawn) [Compound 151, 6-chloro-4-oxo-N-(3-{5-[(1s,3s)-3-(trifluoromethoxy)cyclobutyl]-1,3,4-oxadiazol-2-yl}bicyclo[1.1.1]pentan-1-yl)-3,4-dihydro-2H-1-benzopyran-2-carboxamide], the half-maximal effective concentration (EC50) was in the range of 50 to 250 nM.
Then `CC(F)(F)CCCOc1cnn(C23CC(NC(=O)[C@H]4C[C@@H](O)c5cc(Cl)ccc5O4)(C2)C3)c1` [Compound 521, (2R,4R)-6-chloro-N-(3-{4-[(4,4-difluoropentyl)oxy]-1H-pyrazol-1-yl}bicyclo[1.1.1]pentan-1-yl)-4-hydroxy-3,4-dihydro-2H-1-benzopyran-2-carboxamide], with 10 to 50 nM; and `O=C(NC12CC(n3cc(-c4ccc(OC(F)F)nc4)cn3)(C1)C2)[C@H]1C[C@@H](O)c2cc(Cl)ccc2O1` [Compound 327, (2R,4R)-6-chloro-N-(3-{4-[6-(difluoromethoxy)pyridin-3-yl]-1H-pyrazol-1-yl}bicyclo[1.1.1]pentan-1-yl)-4-hydroxy-3,4-dihydro-2H-1-benzopyran-2-carboxamide], with less than 10 nM.
Then `O=C(NC12CC(c3nnc(OCCOC(F)(F)F)o3)(C1)C2)[C@H]1C[C@@H](O)c2cc(Cl)ccc2O1` [Compound 468, (2R,4R)-6-chloro-4-hydroxy-N-(3-{5-[2-(trifluoromethoxy)ethoxy]-1,3,4-oxadiazol-2-yl}bicyclo[1.1.1]pentan-1-yl)-3,4-dihydro-2H-1-benzopyran-2-carboxamide], with less than 10 nM; and `COc1ccc2nn(C34CC(NC(=O)C5CNc6cc(C(F)(F)F)c(F)cc6O5)(C3)C4)cc2n1` (stereo not drawn) [Compound 654, 7-fluoro-N-[3-(5-methoxy-2H-pyrazolo[4,3-b]pyridin-2-yl)bicyclo[1.1.1]pentan-1-yl]-6-(trifluoromethyl)-3,4-dihydro-2H-1,4-benzoxazine-2-carboxamide], with 10 to 50 nM; and `O=C(NC12CC(n3cc4cc(OC(F)F)ccc4n3)(C1)C2)[C@H]1C[C@@H](O)c2cc(Cl)ccc2O1` [Compound 502, (2R,4R)-6-chloro-N-{3-[5-(difluoromethoxy)-2H-indazol-2-yl]bicyclo[1.1.1]pentan-1-yl}-4-hydroxy-3,4-dihydro-2H-1-benzopyran-2-carboxamide], with 50 to 250 nM.
Take `O=C(NC12CC(n3cc(OCCOC(F)(F)F)cn3)(C1)C2)[C@@H]1C[C@@H](O)c2cc(Cl)c(Cl)cc2O1` [Compound 434, (2S,4R)-6,7-dichloro-4-hydroxy-N-(3-{4-[2-(trifluoromethoxy)ethoxy]-1H-pyrazol-1-yl}bicyclo[1.1.1]pentan-1-yl)-3,4-dihydro-2H-1-benzopyran-2-carboxamide]: the EC50 was less than 10 nM.
To `O=C(NC12CC(n3cc(-c4cnn(CC(F)(F)F)c4)cn3)(C1)C2)[C@H]1C[C@@H](O)c2cc(Cl)c(Cl)cc2O1` [Compound 565, (2R,4R)-6,7-dichloro-4-hydroxy-N-{3-[1′-(2,2,2-trifluoroethyl)-1H,1′H-[4,4′-bipyrazol]-1-yl]bicyclo[1.1.1]pentan-1-yl}-3,4-dihydro-2H-1-benzopyran-2-carboxamide] belongs less than 10 nM.
To `O=C(COc1ccc(Cl)c(F)c1)NC12CC(n3cc([C@H]4[C@@H]5CN(CC(F)(F)F)C[C@@H]54)cn3)(C1)C2` [Compound 625, 2-(4-chloro-3-fluorophenoxy)-N-(3-{4-[(1R,5S,6s)-3-(2,2,2-trifluoroethyl)-3-azabicyclo[3.1.0]hexan-6-yl]-1H-pyrazol-1-yl}bicyclo[1.1.1]pentan-1-yl)acetamide] belongs less than 10 nM; to `O=C(CO[C@H]1C[C@@H](OC(F)(F)F)C1)NC12CC(NC(=O)[C@H]3C[C@@H](O)c4cc(C(F)(F)F)c(F)cc4O3)(C1)C2` [Compound 644, (2R,4R)-7-fluoro-4-hydroxy-N-[3-(2-{[(1s,3S)-3-(trifluoromethoxy)cyclobutyl]oxy}acetamido)bicyclo[1.1.1]pentan-1-yl]-6-(trifluoromethyl)-3,4-dihydro-2H-1-benzopyran-2-carboxamide], less than 10 nM; to `O=C(NC12CC(n3cc(-c4ccc(C(F)(F)F)cn4)cn3)(C1)C2)[C@H]1C[C@H](O)c2cc(C(F)(F)F)ccc2O1` [Compound 549, (2R,4S)-4-hydroxy-6-(trifluoromethyl)-N-(3-{4-[5-(trifluoromethyl)pyridin-2-yl]-1H-pyrazol-1-yl}bicyclo[1.1.1]pentan-1-yl)-3,4-dihydro-2H-1-benzopyran-2-carboxamide], less than 10 nM.
Then `O=C(NC12CC(n3cnc(-c4ccc(OC(F)(F)F)c(F)c4F)c3)(C1)C2)[C@H]1C[C@@H](O)c2cc(Cl)ccc2O1` [Compound 391, (2R,4R)-6-chloro-N-(3-{4-[2,3-difluoro-4-(trifluoromethoxy)phenyl]-1H-imidazol-1-yl}bicyclo[1.1.1]pentan-1-yl)-4-hydroxy-3,4-dihydro-2H-1-benzopyran-2-carboxamide], with less than 10 nM; and `O=C(NC12CC(n3cc(-c4ccc(C(F)(F)F)cn4)cn3)(C1)C2)[C@@H]1C[C@@H](O)c2cc(Cl)ccc2O1` [Compound 317, (2S,4R)-6-chloro-4-hydroxy-N-(3-{4-[5-(trifluoromethyl)pyridin-2-yl]-1H-pyrazol-1-yl}bicyclo[1.1.1]pentan-1-yl)-3,4-dihydro-2H-1-benzopyran-2-carboxamide], with 10 to 50 nM.
Turning to `O=C(NC12CC(OCC(=O)N3CCC(OC(F)(F)F)C3)(C1)C2)[C@H]1C[C@@H](O)c2cc(Cl)ccc2O1` (stereo partly drawn) [Compound 334, (2R,4R)-6-chloro-4-hydroxy-N-(3-{2-oxo-2-[3-(trifluoromethoxy)pyrrolidin-1-yl]ethoxy}bicyclo[1.1.1]pentan-1-yl)-3,4-dihydro-2H-1-benzopyran-2-carboxamide], the EC50 was 50 to 250 nM.
To `O=C(NC12CC(n3cc(C(=O)N4CC(COC(F)(F)F)C4)cn3)(C1)C2)[C@H]1C[C@@H](O)c2cc(F)c(F)cc2O1` [Compound 374, (2R,4R)-6,7-difluoro-4-hydroxy-N-[3-(4-{3-[(trifluoromethoxy)methyl]azetidine-1-carbonyl}-1H-pyrazol-1-yl)bicyclo[1.1.1]pentan-1-yl]-3,4-dihydro-2H-1-benzopyran-2-carboxamide] belongs 50 to 250 nM; to `O=C(NCc1ccc(C(F)(F)F)cn1)[C@H]1C[C@H]2O[C@@H]1CC2NC(=O)[C@H]1C[C@@H](O)c2cc(Cl)ccc2O1` (mixture of isomers) [Compound 313, (2R,4R)-6-chloro-4-hydroxy-N-[(1RS,2SR,4RS,5SR)-5-({[5-(trifluoromethyl)pyridin-2-yl]methyl}carbamoyl)-7-oxabicyclo[2.2.1]heptan-2-yl]-3,4-dihydro-2H-1-benzopyran-2-carboxamide], 250 to 500 nM.
To `O=C(NC12CC(n3cc(-c4ccc(OC(F)(F)F)c(F)c4)cn3)(C1)C2)[C@@H]1C[C@@H](O)c2cc(Cl)ccc2O1` [Compound 306, (2S,4R)-6-chloro-N-(3-{4-[3-fluoro-4-(trifluoromethoxy)phenyl]-1H-pyrazol-1-yl}bicyclo[1.1.1]pentan-1-yl)-4-hydroxy-3,4-dihydro-2H-1-benzopyran-2-carboxamide] belongs less than 10 nM; to `O=C(NC12CC(n3cc(-c4ccc(OC(F)(F)F)cc4)nn3)(C1)C2)[C@H]1C[C@@H](O)c2cc(Cl)ccc2O1` [Compound 357, (2R,4R)-6-chloro-4-hydroxy-N-(3-{4-[4-(trifluoromethoxy)phenyl]-1H-1,2,3-triazol-1-yl}bicyclo[1.1.1]pentan-1-yl)-3,4-dihydro-2H-1-benzopyran-2-carboxamide], less than 10 nM.
Then `O=C(NC12CC(n3cnc(C(=O)N4CC[C@@H](OC(F)(F)F)C4)c3)(C1)C2)[C@H]1C[C@@H](O)c2cc(Cl)ccc2O1` [Compound 321, (2R,4R)-6-chloro-4-hydroxy-N-(3-{4-[(3R)-3-(trifluoromethoxy)pyrrolidine-1-carbonyl]-1H-imidazol-1-yl}bicyclo[1.1.1]pentan-1-yl)-3,4-dihydro-2H-1-benzopyran-2-carboxamide], with 10 to 50 nM; and `O=C(N[C@H]1CC[C@H](n2cc(OCCOC(F)(F)F)cn2)CC1)[C@H]1C[C@@H](O)c2cc(Cl)c(Cl)cc2O1` [Compound 459, (2R,4R)-6,7-dichloro-4-hydroxy-N-[(1r,4R)-4-{4-[2-(trifluoromethoxy)ethoxy]-1H-pyrazol-1-yl}cyclohexyl]-3,4-dihydro-2H-1-benzopyran-2-carboxamide], with less than 10 nM; and `O=C(COc1ccc(Cl)c(F)c1)N[C@H]1CC[C@H](n2cc(OCCOC(F)(F)F)cn2)CC1` [Compound 457, 2-(4-chloro-3-fluorophenoxy)-N-[(1r,4r)-4-{4-[2-(trifluoromethoxy)ethoxy]-1H-pyrazol-1-yl}cyclohexyl]acetamide], with less than 10 nM.
For `O=C(NC12CC(c3ccnc(-n4cc(C(F)(F)F)cn4)c3)(C1)C2)[C@H]1C[C@@H](O)c2cc(Cl)ccc2O1` [Compound 560, (2R,4R)-6-chloro-4-hydroxy-N-(3-{2-[4-(trifluoromethyl)-1H-pyrazol-1-yl]pyridin-4-yl}bicyclo[1.1.1]pentan-1-yl)-3,4-dihydro-2H-1-benzopyran-2-carboxamide], the EC50 was 10 to 50 nM.
